Columns and labels:
Type in all cases: biochemical
[1] = target: T1, B type monoamine oxidase (Rattus norvegicus, UniProt P19643); assay: B type monoamine oxidase-inhibiting activity (Test example 3; rat cerebrum homogenate, 14C-β-PEA substrate); conditions: β-PEA 20 μM, preincubated 37° C. 30 minutes, Hill analysis, read-out: IC50 value, Inhibition of B type monoamine oxidase
T1 construct: a rat cerebrum homogenized in a 0.1M phosphate buffer was used; from tissue; host or cells: rat cerebrum homogenate
T1 sequence (P19643 1-520): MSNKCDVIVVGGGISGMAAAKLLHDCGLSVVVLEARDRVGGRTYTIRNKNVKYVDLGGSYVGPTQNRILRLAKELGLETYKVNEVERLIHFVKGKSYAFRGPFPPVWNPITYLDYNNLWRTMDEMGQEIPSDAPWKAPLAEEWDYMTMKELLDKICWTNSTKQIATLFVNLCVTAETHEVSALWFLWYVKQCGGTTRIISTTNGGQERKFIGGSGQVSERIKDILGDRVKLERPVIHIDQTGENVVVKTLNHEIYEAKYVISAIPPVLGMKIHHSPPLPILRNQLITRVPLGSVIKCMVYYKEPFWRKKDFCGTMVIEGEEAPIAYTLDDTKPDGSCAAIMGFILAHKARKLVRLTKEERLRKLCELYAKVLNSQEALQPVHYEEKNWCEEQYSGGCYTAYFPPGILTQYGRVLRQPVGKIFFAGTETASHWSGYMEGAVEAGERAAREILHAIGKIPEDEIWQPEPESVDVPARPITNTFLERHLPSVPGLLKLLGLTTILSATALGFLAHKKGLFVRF
Procedure: (§1) A type and B type monoamine oxidase-inhibiting activity
(§2) As an enzyme source, a rat cerebrum homogenized in a 0.1M phosphate buffer was used.
(§3) That is, the rat cerebrum homogenate suitably diluted with a 0.1M phosphate buffer and each compound to be tested were preincubated at 37° C. for 30 minutes. […] After the mixture was separated into two layers by centrifugation, a part of the organic layer was mixed with liquid scintillation cocktail. Radioactivity extracted into the organic layer was measured by a liquid scintillation counter to calculate the enzyme activity.
(§4) Inhibiting rates were calculated from enzyme activities in the presence of the compounds to be tested having various concentrations based on enzyme activities in the absence of the compounds to be tested, with absorbance when reaction was carried out in the absence of the homogenate being defined as blank. IC50 values were calculated by Hill analysis.

[2] = target: T2, acetylcholinesterase (Rattus norvegicus, UniProt P37136); assay: Acetylcholinesterase-inhibiting activity (Test example 1; crude synaptosome fraction of rat cerebrum, modified Ellman method)
T2 construct: a crude synaptosome fraction of a rat cerebrum was used; from tissue; host or cells: rat cerebrum, crude synaptosome fraction
Procedure: Acetylcholinesterase-inhibiting activity
As an enzyme source, a crude synaptosome fraction of a rat cerebrum was used.
That is, to the crude synaptosome fraction of the rat cerebrum suitably diluted with a 0.1M phosphate buffer were added each compound to be tested, 5,5'-dithiobis(2-nitrobenzoic acid) (hereinafter referred to as DTNB) and acetylthiocholine as a substrate, and the mixture was incubated at 25° C. for a predetermined time.
as §4, with “Enzyme activity-inhibiting” for “Inhibiting”, “absorbances” for “enzyme activities”, “substrate” for “homogenate”

[3] = target: T3, A type monoamine oxidase (Rattus norvegicus, UniProt P21396); assay: A type monoamine oxidase-inhibiting activity (Test example 3; rat cerebrum homogenate, 14C-5-HT substrate); conditions: 5-HT 200 μM, preincubated 37° C. 30 minutes, Hill analysis, read-out: IC50 value, Inhibition of A type monoamine oxidase
T3 construct: a rat cerebrum homogenized in a 0.1M phosphate buffer was used; from tissue; host or cells: rat cerebrum homogenate
T3 sequence (P21396 1-526): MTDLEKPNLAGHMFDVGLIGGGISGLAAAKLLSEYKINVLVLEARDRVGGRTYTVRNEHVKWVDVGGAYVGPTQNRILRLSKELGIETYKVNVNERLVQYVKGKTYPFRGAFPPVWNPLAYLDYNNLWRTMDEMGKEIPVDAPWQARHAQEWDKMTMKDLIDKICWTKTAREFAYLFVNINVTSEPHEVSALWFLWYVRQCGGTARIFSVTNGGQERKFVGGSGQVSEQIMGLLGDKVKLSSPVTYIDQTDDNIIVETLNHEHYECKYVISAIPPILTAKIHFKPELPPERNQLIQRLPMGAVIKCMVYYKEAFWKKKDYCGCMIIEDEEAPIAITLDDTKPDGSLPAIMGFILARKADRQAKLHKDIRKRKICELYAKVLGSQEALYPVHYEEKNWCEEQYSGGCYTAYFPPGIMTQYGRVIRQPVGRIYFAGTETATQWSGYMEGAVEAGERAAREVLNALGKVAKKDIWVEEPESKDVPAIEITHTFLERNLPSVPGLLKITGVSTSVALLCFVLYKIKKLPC
Procedure: as §1, §2, §3, §4

[4] = target: T4, butyrylcholinesterase (Rattus norvegicus, UniProt Q9JKC1); assay: Butyrylcholinesterase-inhibiting activity (Test example 2; rat serum, modified Ellman method)
T4 construct: As an enzyme source, a rat serum was used; from tissue; host or cells: rat serum
Procedure: Butyrylcholinesterase-inhibiting activity
As an enzyme source, a rat serum was used.
The activity of butyrylcholinesterase was measured by a partially modified method of the above method of Ellman et. al. That is, to the rat serum suitably diluted with a 0.1M phosphate buffer were added each compound to be tested, DTNB and butyrylthiocholine as a substrate, and the mixture was incubated at 25° C. for a predetermined time.
as §4, with “Enzyme activity-inhibiting” for “Inhibiting”, “absorbances” for “enzyme activities”, “substrate” for “homogenate”

T2 sequence (P37136 32-614): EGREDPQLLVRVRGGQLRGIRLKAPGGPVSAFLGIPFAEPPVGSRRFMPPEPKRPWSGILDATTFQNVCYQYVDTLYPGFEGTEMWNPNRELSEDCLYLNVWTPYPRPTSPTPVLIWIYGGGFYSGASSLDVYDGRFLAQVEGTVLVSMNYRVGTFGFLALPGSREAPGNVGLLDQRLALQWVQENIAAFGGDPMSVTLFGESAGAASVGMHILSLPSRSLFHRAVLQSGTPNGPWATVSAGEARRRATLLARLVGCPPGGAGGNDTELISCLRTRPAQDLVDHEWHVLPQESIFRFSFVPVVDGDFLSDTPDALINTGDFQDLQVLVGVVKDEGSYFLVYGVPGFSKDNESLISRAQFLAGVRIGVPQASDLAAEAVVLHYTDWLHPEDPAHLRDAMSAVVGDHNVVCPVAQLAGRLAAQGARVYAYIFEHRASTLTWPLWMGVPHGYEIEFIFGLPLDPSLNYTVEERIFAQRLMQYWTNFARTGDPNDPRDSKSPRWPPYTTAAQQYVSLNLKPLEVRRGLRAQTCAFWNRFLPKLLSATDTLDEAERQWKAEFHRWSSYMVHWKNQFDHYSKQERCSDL
T4 sequence (Q9JKC1 24-597): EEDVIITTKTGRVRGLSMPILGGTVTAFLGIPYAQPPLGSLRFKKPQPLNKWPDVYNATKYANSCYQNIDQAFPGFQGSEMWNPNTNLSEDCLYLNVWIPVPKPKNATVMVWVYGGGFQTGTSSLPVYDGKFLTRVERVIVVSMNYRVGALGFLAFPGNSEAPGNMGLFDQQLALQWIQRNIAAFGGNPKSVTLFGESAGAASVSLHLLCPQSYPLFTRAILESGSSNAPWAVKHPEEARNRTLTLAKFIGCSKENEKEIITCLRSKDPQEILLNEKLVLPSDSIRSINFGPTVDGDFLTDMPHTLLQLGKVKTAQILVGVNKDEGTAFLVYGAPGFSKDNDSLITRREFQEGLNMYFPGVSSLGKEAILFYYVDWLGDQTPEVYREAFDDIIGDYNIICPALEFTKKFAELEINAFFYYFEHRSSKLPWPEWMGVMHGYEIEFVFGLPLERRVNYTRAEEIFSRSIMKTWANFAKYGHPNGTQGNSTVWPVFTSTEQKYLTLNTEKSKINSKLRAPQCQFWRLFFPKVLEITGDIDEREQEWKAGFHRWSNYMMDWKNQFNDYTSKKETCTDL

Structure (SMILES)	IC50 [1] [nM]	IC50 [2] [nM]	IC50 [3] [nM]	IC50 [4] [nM]
N#Cc1ccc(Nc2ncnc3c2CCC3)cc1 [Compound B, 4-(4-cyanoanilino)-5,6-dihydro-7H-cyclopenta[d]pyrimidine, reference compound]	> 10000	> 10000	160	> 10000
Cc1ncnc(Nc2ccc(C(=O)/C=C/C3CCN(Cc4ccccc4)CC3)cc2)c1C [Example 1, (E)-N-(5,6-dimethylpyrimidin-4-yl)-4-[3-(1-benzyl-piperidin-4-yl)propenoyl]aniline]	> 10000	3.3	1600	> 10000
Cc1ncnc(Nc2ccc(C(=O)CCC3CCN(Cc4ccccc4)CC3)cc2)c1C [Example 2, N-(5,6-dimethylpyrimidin-4-yl)-4-[3-(1-benzylpiperidin-4-yl)propanoyl]aniline]	> 10000	3.6	890	> 10000
O=C(/C=C/C1CCN(Cc2ccccc2)CC1)c1ccc(Nc2ncnc3c2CCC3)cc1 [Example 6, (E)-N-(5,6-dihydro-7H-cyclopenta[d]pyrimidin-4-yl)-4-[3-(1-benzylpiperidin-4-yl)propenoyl]aniline]	> 10000	3.1	220	> 10000
O=C(CCC1CCN(Cc2ccccc2)CC1)c1ccc(Nc2ncnc3c2CCC3)cc1 [Example 8, N-(5,6-dihydro-7H-cyclopenta[d]pyrimidin-4-yl)-4-[3(1-benzylpiperidin-4-yl)propanoyl]aniline. 2HCl]	> 10000	2	85	> 10000
O=C(/C=C/C1CCN(Cc2ccccc2)CC1)c1ccc(Nc2ncnc3c2CCCC3)cc1 [Example 9, (E)-N-(5,6,7,8-tetrahydroquinazolin-4-yl)-4-[3-(1-benzylpiperidin-4-yl)propenoyl]aniline]	> 10000	1.4	1400	> 10000
O=C(CCC1CCN(Cc2ccccc2)CC1)c1ccc(Nc2ncnc3c2CCCC3)cc1 [Example 10, N-(5,6,7,8-tetrahydroquinazolin-4-yl)-4-[3-(1-benzyl-piperidin-4-yl)propanoyl]aniline]	> 10000	1.1	320	> 10000
O=C1C(=CC2CCN(Cc3ccccc3)CC2)Cc2cc(Nc3ncnc4c3CCC4)ccc21 [Example 21, 4-[1-Oxo-2-(1-benzylpiperidin-4-yl)methyleneindan-5-yl]amino-5,6-dihydro-7H-cyclopenta[d]pyrimidine]	> 10000	20	600	> 10000
O=C1c2ccc(Nc3ncnc4c3CCC4)cc2CC1CC1CCN(Cc2ccccc2)CC1 (stereo not drawn) [Example 22, 4-[1-Oxo-2-(1-benzylpiperidin-4-yl)methylindan-5-yl]amino-5,6-dihydro-7H-cyclopenta[d]pyrimidine]	> 10000	7.3	810	> 10000
Cc1cncnc1Nc1ccc(C(=O)CC2CCN(Cc3ccccc3)CC2)cc1 [Example 25, N-(5-methylpyrimidin-4-yl)-4-[(1-benzylpiperidin-4-yl)acetyl]aniline]	6800	250	340	> 10000
O=C(CC1CCN(Cc2ccccc2)CC1)c1ccc(Nc2ncnc3c2CCC3)cc1 [Example 26, N-(5,6-dihydro-7H-cyclopenta[d]pyrimidin-4-yl)-4-[(1-benzylpiperidin-4-yl)acetyl]aniline]	> 10000	150	56	> 10000
O=C(CCC1CCN(Cc2ccccn2)CC1)c1ccc(Nc2ncnc3c2CCC3)cc1 [Example 53, N-(5,6-dihydro-7H-cyclopenta-[d]pyrimidin-4-yl)-4-{3-[1-(2-pyridylmethyl)piperidin-4-yl]-propanoyl}aniline]	> 10000	17	85	> 10000
O=C(CC1CCN(Cc2cccs2)CC1)c1ccc(Nc2ncnc3c2CCC3)cc1 [Example 87, N-(5,6-dihydro-7H-cyclopenta-[d]pyrimidin-4-yl)-4-{[1-(2-thienylmethyl)piperidin-4-yl]-acetyl}aniline]	> 10000	270	35	> 10000
Cc1cncnc1Nc1ccc(C(=O)CC2CCN(Cc3cccs3)CC2)cc1 [Example 88, N-(5-methylpyrimidin-4-yl)-4-{[1-(2-thienylmethyl)piperidin-4-yl]acetyl}aniline]	2100	330	250	> 10000
CCc1cncnc1Nc1ccc(C(=O)CC2CCN(Cc3ccccc3)CC2)cc1 [Example 93, N-(5-ethylpyrimidin-4-yl)-4-[(1-benzylpiperidin-4-yl)-acetyl]aniline]	7200	200	420	> 10000
